{"source": "patent US9309250B2", "about": "“Substituted pyrrolo[2,3-b]pyrazines as ATR kinase inhibitors” (Vertex Pharmaceuticals Incorporated, priority 2011, dated 2016)", "target": "T1, full-length ATR (Homo sapiens, UniProt Q13535)", "T1 construct": "Assays were carried out at 25° C. in the presence of 5 nM full-length ATR", "T1 sequence (Q13535 whole entry)": "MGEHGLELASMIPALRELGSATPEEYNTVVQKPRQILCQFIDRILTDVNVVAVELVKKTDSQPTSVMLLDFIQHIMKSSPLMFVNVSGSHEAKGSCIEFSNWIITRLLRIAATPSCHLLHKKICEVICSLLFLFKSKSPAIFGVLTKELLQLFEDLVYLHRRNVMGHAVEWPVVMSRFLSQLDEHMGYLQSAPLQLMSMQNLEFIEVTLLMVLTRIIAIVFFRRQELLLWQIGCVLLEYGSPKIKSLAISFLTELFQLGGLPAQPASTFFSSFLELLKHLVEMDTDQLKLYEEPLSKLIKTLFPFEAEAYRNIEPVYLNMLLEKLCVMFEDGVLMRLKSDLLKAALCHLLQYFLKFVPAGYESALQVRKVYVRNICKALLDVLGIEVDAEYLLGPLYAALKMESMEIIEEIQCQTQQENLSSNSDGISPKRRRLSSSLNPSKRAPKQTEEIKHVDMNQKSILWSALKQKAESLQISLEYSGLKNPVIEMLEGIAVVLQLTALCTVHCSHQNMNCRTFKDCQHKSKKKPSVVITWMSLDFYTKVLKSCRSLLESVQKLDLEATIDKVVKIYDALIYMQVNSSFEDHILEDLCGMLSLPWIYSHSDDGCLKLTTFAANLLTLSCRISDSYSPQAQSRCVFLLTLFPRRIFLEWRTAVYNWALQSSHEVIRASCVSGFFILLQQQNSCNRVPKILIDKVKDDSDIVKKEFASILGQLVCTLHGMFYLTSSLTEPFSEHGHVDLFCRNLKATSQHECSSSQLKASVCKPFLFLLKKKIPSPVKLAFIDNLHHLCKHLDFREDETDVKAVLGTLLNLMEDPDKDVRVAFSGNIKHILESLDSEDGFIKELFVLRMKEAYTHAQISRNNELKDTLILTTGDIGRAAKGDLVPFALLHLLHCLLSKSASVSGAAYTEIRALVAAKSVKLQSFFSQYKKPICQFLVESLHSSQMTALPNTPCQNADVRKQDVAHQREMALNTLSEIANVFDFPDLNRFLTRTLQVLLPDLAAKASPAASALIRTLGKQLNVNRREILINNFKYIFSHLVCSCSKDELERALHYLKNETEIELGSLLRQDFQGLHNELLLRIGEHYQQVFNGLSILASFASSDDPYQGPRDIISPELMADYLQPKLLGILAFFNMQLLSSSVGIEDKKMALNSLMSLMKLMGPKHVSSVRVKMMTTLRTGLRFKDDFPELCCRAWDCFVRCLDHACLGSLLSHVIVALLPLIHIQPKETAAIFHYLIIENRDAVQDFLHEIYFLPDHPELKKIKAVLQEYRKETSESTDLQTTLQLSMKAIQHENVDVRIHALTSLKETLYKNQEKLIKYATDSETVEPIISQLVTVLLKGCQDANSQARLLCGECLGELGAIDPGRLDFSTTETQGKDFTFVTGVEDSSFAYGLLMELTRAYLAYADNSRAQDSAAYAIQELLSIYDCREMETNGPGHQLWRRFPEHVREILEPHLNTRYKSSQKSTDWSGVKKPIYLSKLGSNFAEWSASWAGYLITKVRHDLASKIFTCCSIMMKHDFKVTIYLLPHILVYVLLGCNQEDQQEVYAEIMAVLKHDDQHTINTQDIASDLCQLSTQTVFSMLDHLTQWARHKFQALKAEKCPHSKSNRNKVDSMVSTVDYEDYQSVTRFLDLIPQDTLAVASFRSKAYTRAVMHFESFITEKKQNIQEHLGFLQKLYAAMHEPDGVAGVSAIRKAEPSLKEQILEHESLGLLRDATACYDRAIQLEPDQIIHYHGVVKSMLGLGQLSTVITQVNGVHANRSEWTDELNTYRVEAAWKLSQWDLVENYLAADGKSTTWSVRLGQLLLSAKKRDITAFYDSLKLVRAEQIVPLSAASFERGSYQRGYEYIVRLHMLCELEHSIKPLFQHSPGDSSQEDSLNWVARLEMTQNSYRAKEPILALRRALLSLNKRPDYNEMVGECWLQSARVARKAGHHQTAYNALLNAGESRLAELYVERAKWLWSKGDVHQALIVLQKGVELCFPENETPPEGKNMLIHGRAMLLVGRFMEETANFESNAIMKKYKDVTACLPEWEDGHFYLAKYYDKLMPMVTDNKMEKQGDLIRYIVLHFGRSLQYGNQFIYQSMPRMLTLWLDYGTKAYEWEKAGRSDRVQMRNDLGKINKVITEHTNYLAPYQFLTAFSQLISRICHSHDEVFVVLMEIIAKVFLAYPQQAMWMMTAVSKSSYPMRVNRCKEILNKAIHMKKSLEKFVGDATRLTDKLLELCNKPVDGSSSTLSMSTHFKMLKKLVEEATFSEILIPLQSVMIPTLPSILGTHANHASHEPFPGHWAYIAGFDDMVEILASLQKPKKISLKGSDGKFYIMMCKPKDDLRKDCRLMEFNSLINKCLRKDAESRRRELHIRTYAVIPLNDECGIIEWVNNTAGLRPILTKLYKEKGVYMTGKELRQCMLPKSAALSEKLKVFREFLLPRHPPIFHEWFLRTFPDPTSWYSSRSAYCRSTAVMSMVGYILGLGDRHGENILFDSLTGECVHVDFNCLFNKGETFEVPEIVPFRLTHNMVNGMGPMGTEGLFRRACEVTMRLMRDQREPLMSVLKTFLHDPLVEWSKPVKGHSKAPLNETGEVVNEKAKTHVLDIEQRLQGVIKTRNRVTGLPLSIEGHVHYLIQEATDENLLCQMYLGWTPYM", "assay": "ATR Inhibition Assay (radioactive-phosphate incorporation)", "format": "biochemical", "conditions": "Ki(app); 5 nM full-length ATR, 10 μM ATP, 800 μM target peptide, 25° C.", "experimental": "Compounds were screened for their ability to inhibit ATR kinase using a radioactive-phosphate incorporation assay. Assays were carried out in a mixture of 50 mM Tris/HCl (pH 7.5), 10 mM MgCl2 and 1 mM DTT. Final substrate concentrations were 10 μM [γ-33P]ATP (3mCi 33P ATP/mmol ATP, Perkin Elmer) and 800 μM target peptide (ASELPASQPQPFSAKKK) (SEQ. ID. NO: 1).\nAssays were carried out at 25° C. in the presence of 5 nM full-length ATR. An assay stock buffer solution was prepared containing all of the reagents listed above, with the exception of ATP and the test compound of interest. 13.5 μL of the stock solution was placed in a 96 well plate followed by addition of 2 μL of DMSO stock containing serial dilutions of the test compound (typically starting from a final concentration of 15 μM with 3-fold serial dilutions) in duplicate (final DMSO concentration 7%). The plate was pre-incubated for 10 minutes at 25° C. and the reaction initiated by addition of 15 μL [γ-33P]ATP (final concentration 10 μM).\nThe reaction was stopped after […] by the addition of 30 μL 0.1M phosphoric acid containing 2 mM ATP. A multiscreen phosphocellulose filter 96-well plate (Millipore, Cat no. MAPHN0B50) was pretreated with 100 μL 0.2M phosphoric acid prior to the addition of 45 μL of the stopped assay mixture. The plate was washed with 5×200 μL 0.2M phosphoric acid. After drying, 100 μL Optiphase ‘SuperMix’ liquid scintillation cocktail (Perkin Elmer) was added to the well prior to scintillation counting (1450 Microbeta Liquid Scintillation Counter, Wallac).\nAfter removing mean background values for all of the data points, Ki(app) data were calculated from non-linear regression analysis of the initial rate data using the Prism software package (GraphPad Prism version 3.0cx for Macintosh, GraphPad Software, San Diego Calif., USA).\nBelow is a chart showing the ATR Inhibition Ki values of compounds of the disclosure.", "note": "pKi: −log10 of the molar value."}
{"smiles": "CC(C)S(=O)(=O)c1ccc(-c2cnc3[nH]cc(N4Cc5cccc(N)c5C4=O)c3n2)cc1", "note": "[Compound I-21, 7-amino-2-(2-(4-(isopropylsulfonyl)phenyl)-5H-pyrrolo[2,3-b]pyrazin-7-yl)isoindolin-1-one]", "values": [{"measurement": "pKi", "value": "≥ 7.30"}]}
{"smiles": "CC(C)S(=O)(=O)c1ccc(-c2cnc3[nH]cc(N4CCc5ccccc5C4=O)c3n2)cc1", "note": "[Compound I-2, 2-(2-(4-(isopropylsulfonyl)phenyl)-5H-pyrrolo[2,3-b]pyrazin-7-yl)-3,4-dihydroisoquinolin-1(2H)-one]", "values": [{"measurement": "pKi", "value": "6.60 to 7.00"}]}
{"smiles": "CC(C)S(=O)(=O)c1ccc(-c2cnc3[nH]cc(N4Cc5cc(N6CCNCC6)ccc5C4=O)c3n2)cc1", "note": "[Compound I-28, 2-(2-(4-(isopropylsulfonyl)phenyl)-5H-pyrrolo[2,3-b]pyrazin-7-yl)-5-(piperazin-1-yl)isoindolin-1-one]", "values": [{"measurement": "pKi", "value": "≥ 7.30"}]}
{"smiles": "CC(C)S(=O)(=O)c1ccc(-c2cnc3[nH]cc(N4Cc5cc(CN)ccc5C4=O)c3n2)cc1", "note": "[Compound I-15, 5-(aminomethyl)-2-(2-(4-(isopropylsulfonyl)phenyl)-5H-pyrrolo[2,3-b]pyrazin-7-yl)isoindolin-1-one]", "values": [{"measurement": "pKi", "value": "6.60 to 7.00"}]}
{"smiles": "CC(C)S(=O)(=O)c1ccc(-c2cnc3[nH]cc(N4Cc5ccc(N6CC[C@@H](N)C6)cc5C4=O)c3n2)cc1", "note": "[Compound I-25, (R)-6-(3-aminopyrrolidin-1-yl)-2-(2-(4-(isopropylsulfonyl)phenyl)-5H-pyrrolo[2,3-b]pyrazin-7-yl)isoindolin-1-one]", "values": [{"measurement": "pKi", "value": "≥ 7.30"}]}
{"smiles": "O=C1c2ccccc2CN1c1c[nH]c2ncc(-c3ccc(S(=O)(=O)C4COC4)cc3)nc12", "note": "[Compound I-5, 2-(2-(4-(oxetan-3-ylsulfonyl)phenyl)-5H-pyrrolo[2,3-b]pyrazin-7-yl)isoindolin-1-one]", "values": [{"measurement": "pKi", "value": "≥ 7.30"}]}
{"smiles": "CC1c2ccccc2C(=O)N1c1c[nH]c2ncc(-c3ccc(S(=O)(=O)C(C)C)cc3)nc12", "note": "(centres unmarked) [Compound I-3, 2-(2-(4-(isopropylsulfonyl)phenyl)-5H-pyrrolo[2,3-b]pyrazin-7-yl)-3-methylisoindolin-1-one]", "values": [{"measurement": "pKi", "value": "≥ 7.30"}]}
{"smiles": "CC(C)S(=O)(=O)c1ccc(-c2cnc3[nH]cc(N4Cc5cc(NCCN)ccc5C4=O)c3n2)cc1", "note": "[Compound I-34, 5-((2-aminoethyl)amino)-2-(2-(4-(isopropylsulfonyl)phenyl)-5H-pyrrolo[2,3-b]pyrazin-7-yl)isoindolin-1-one]", "values": [{"measurement": "pKi", "value": "≥ 7.30"}]}
{"smiles": "CC(C)S(=O)(=O)c1ccc(-c2cnc3[nH]cc(N4Cc5cccc([N+](=O)[O-])c5C4=O)c3n2)cc1", "note": "[Compound I-14, 2-(2-(4-(isopropylsulfonyl)phenyl)-5H-pyrrolo[2,3-b]pyrazin-7-yl)-7-nitroisoindolin-1-one]", "values": [{"measurement": "pKi", "value": "≥ 7.30"}]}
{"smiles": "CC(C)S(=O)(=O)c1ccc(-c2cnc3[nH]cc(N4Cc5cc(NC6CNC6)ccc5C4=O)c3n2)cc1", "note": "[Compound I-39, 5-(azetidin-3-ylamino)-2-(2-(4-(isopropylsulfonyl)phenyl)-5H-pyrrolo[2,3-b]pyrazin-7-yl)isoindolin-1-one]", "values": [{"measurement": "pKi", "value": "≥ 7.30"}]}
{"smiles": "CC(C)S(=O)(=O)c1ccc(-c2cnc3[nH]cc(N4Cc5cc(Br)ccc5C4=O)c3n2)cc1", "note": "[Compound I-9, 5-bromo-2-(2-(4-(isopropylsulfonyl)phenyl)-5H-pyrrolo[2,3-b]pyrazin-7-yl)isoindolin-1-one]", "values": [{"measurement": "pKi", "value": "7.00 to 7.30"}]}
{"smiles": "CC(C)S(=O)(=O)c1ccc(-c2cnc3[nH]cc(N4Cc5c(CN)cccc5C4=O)c3n2)cc1", "note": "[Compound I-17, 4-(aminomethyl)-2-(2-(4-(isopropylsulfonyl)phenyl)-5H-pyrrolo[2,3-b]pyrazin-7-yl)isoindolin-1-one]", "values": [{"measurement": "pKi", "value": "≥ 7.30"}]}
{"smiles": "O=C1c2c(Cl)cccc2CN1c1c[nH]c2ncc(-c3ccc(S(=O)(=O)C4CCCNC4)cc3)nc12", "note": "(centres unmarked) [Compound I-24, 7-chloro-2-(2-(4-(piperidin-3-ylsulfonyl)phenyl)-5H-pyrrolo[2,3-b]pyrazin-7-yl)isoindolin-1-one]", "values": [{"measurement": "pKi", "value": "≥ 7.30"}]}
{"smiles": "CC(C)S(=O)(=O)c1ccc(-c2cnc3[nH]cc(N4Cc5cc(N(C)C6CCNCC6)ccc5C4=O)c3n2)cc1", "note": "[Compound I-31, 2-(2-(4-(isopropylsulfonyl)phenyl)-5H-pyrrolo[2,3-b]pyrazin-7-yl)-5-(methyl(piperidin-4-yl)amino)isoindolin-1-one]", "values": [{"measurement": "pKi", "value": "≥ 7.30"}]}
{"smiles": "CC(C)S(=O)(=O)c1ccc(-c2cnc3[nH]cc(N4C(=O)c5ccccc5C4CCO)c3n2)cc1", "note": "(centres unmarked) [Compound I-48, 3-(2-hydroxyethyl)-2-(2-(4-(isopropylsulfonyl)phenyl)-5H-pyrrolo[2,3-b]pyrazin-7-yl)isoindolin-1-one]", "values": [{"measurement": "pKi", "value": "≥ 7.30"}]}
{"smiles": "O=C1c2c(Cl)cccc2CN1c1c[nH]c2ncc(-c3ccc(S(=O)(=O)C4CCNCC4)cc3)nc12", "note": "[Compound I-23, 7-chloro-2-(2-(4-(piperidin-4-ylsulfonyl)phenyl)-5H-pyrrolo[2,3-b]pyrazin-7-yl)isoindolin-1-one]", "values": [{"measurement": "pKi", "value": "≥ 7.30"}]}
{"smiles": "CC(C)S(=O)(=O)c1ccc(-c2cnc3[nH]cc(N4Cc5cc(N6CC[C@H](CN)C6)ccc5C4=O)c3n2)cc1", "note": "[Compound I-29, (R)-5-(3-(aminomethyl)pyrrolidin-1-yl)-2-(2-(4-(isopropylsulfonyl)phenyl)-5H-pyrrolo[2,3-b]pyrazin-7-yl)isoindolin-1-one]", "values": [{"measurement": "pKi", "value": "≥ 7.30"}]}
{"smiles": "CC(C)S(=O)(=O)c1ccc(-c2cnc3[nH]cc(N4Cc5ccc(NCCN(C)C)cc5C4=O)c3n2)cc1", "note": "[Compound I-26, 6-((2-(dimethylamino)ethyl)amino)-2-(2-(4-(isopropylsulfonyl)phenyl)-5H-pyrrolo[2,3-b]pyrazin-7-yl)isoindolin-1-one]", "values": [{"measurement": "pKi", "value": "≥ 7.30"}]}
{"smiles": "CC(C)S(=O)(=O)c1ccc(-c2cnc3[nH]cc(N4Cc5cc(-c6ccn[nH]6)ccc5C4=O)c3n2)cc1", "note": "[Compound I-43, 2-(2-(4-(isopropylsulfonyl)phenyl)-5H-pyrrolo[2,3-b]pyrazin-7-yl)-5-(1H-pyrazol-5-yl)isoindolin-1-one]", "values": [{"measurement": "pKi", "value": "≥ 7.30"}]}
{"smiles": "CC(C)S(=O)(=O)c1ccc(-c2cnc3[nH]cc(N4Cc5cc(N6CC[C@H](N)C6)ccc5C4=O)c3n2)cc1", "note": "[Compound I-41, (S)-5-(3-aminopyrrolidin-1-yl)-2-(2-(4-(isopropylsulfonyl)phenyl)-5H-pyrrolo[2,3-b]pyrazin-7-yl)isoindolin-1-one]", "values": [{"measurement": "pKi", "value": "≥ 7.30"}]}
{"smiles": "CC(C)S(=O)(=O)c1ccc(-c2cnc3[nH]cc(N4Cc5cc(N6CC[C@@H](N)C6)ccc5C4=O)c3n2)cc1", "note": "[Compound I-42, (R)-5-(3-aminopyrrolidin-1-yl)-2-(2-(4-(isopropylsulfonyl)phenyl)-5H-pyrrolo[2,3-b]pyrazin-7-yl)isoindolin-1-one]", "values": [{"measurement": "pKi", "value": "≥ 7.30"}]}
{"smiles": "CC(C)S(=O)(=O)c1ccc(-c2cnc3[nH]cc(N4Cc5cc(NCC6CCCNC6)ccc5C4=O)c3n2)cc1", "note": "(centres unmarked) [Compound I-40, 2-(2-(4-(isopropylsulfonyl)phenyl)-5H-pyrrolo[2,3-b]pyrazin-7-yl)-5-((piperidin-3-ylmethyl)amino)isoindolin-1-one]", "values": [{"measurement": "pKi", "value": "≥ 7.30"}]}
{"smiles": "CC(C)S(=O)(=O)c1ccc(-c2cnc3[nH]cc(N4Cc5cc(N(C)CCCN(C)C)ccc5C4=O)c3n2)cc1", "note": "[Compound I-36, 5-((3-(dimethylamino)propyl)(methyl)amino)-2-(2-(4-(isopropylsulfonyl)phenyl)-5H-pyrrolo[2,3-b]pyrazin-7-yl)isoindolin-1-one]", "values": [{"measurement": "pKi", "value": "≥ 7.30"}]}
{"smiles": "CC(C)S(=O)(=O)c1ccc(-c2cnc3[nH]cc(N4Cc5cccc(N(C)C)c5C4=O)c3n2)cc1", "note": "[Compound I-45, 7-(dimethylamino)-2-(2-(4-(isopropylsulfonyl)phenyl)-5H-pyrrolo[2,3-b]pyrazin-7-yl)isoindolin-1-one]", "values": [{"measurement": "pKi", "value": "≥ 7.30"}]}
{"smiles": "CC(C)S(=O)(=O)c1ccc(-c2cnc3[nH]cc(N4Cc5cc(OCCN(C)C)ccc5C4=O)c3n2)cc1", "note": "[Compound I-47, 5-(2-(dimethylamino)ethoxy)-2-(2-(4-(isopropylsulfonyl)phenyl)-5H-pyrrolo[2,3-b]pyrazin-7-yl)isoindolin-1-one]", "values": [{"measurement": "pKi", "value": "≥ 7.30"}]}
{"smiles": "CC(C)S(=O)(=O)c1ccc(-c2cnc3[nH]cc(N4Cc5c(Cl)cccc5C4=O)c3n2)cc1", "note": "[Compound I-11, 4-chloro-2-(2-(4-(isopropylsulfonyl)phenyl)-5H-pyrrolo[2,3-b]pyrazin-7-yl)isoindolin-1-one]", "values": [{"measurement": "pKi", "value": "7.00 to 7.30"}]}
{"smiles": "O=C1c2ccccc2CN1c1c[nH]c2ncc(-c3ccc(S(=O)(=O)C4CCCNC4)cc3)nc12", "note": "(centres unmarked) [Compound I-8, 2-(2-(4-(piperidin-3-ylsulfonyl)phenyl)-5H-pyrrolo[2,3-b]pyrazin-7-yl)isoindolin-1-one]", "values": [{"measurement": "pKi", "value": "≥ 7.30"}]}
{"smiles": "CC(C)S(=O)(=O)c1ccc(-c2cnc3[nH]cc(N4Cc5cc(N6CCCC(N)C6)ccc5C4=O)c3n2)cc1", "note": "(centres unmarked) [Compound I-30, 5-(3-aminopiperidin-1-yl)-2-(2-(4-(isopropylsulfonyl)phenyl)-5H-pyrrolo[2,3-b]pyrazin-7-yl)isoindolin-1-one]", "values": [{"measurement": "pKi", "value": "≥ 7.30"}]}
{"smiles": "CC(C)S(=O)(=O)c1ccc(-c2cnc3[nH]cc(N4Cc5cc(N6CCC(N(C)C)CC6)ccc5C4=O)c3n2)cc1", "note": "[Compound I-37, 5-(4-(dimethylamino)piperidin-1-yl)-2-(2-(4-(isopropylsulfonyl)phenyl)-5H-pyrrolo[2,3-b]pyrazin-7-yl)isoindolin-1-one]", "values": [{"measurement": "pKi", "value": "≥ 7.30"}]}
